# Assay results as given in US11701333B2, “Antibacterial compounds” (KENT INNOVATION & ENTERPRISE, priority 2017, dated 2023).
# Assays:
# Type in all cases: cell-based
# E. coli [1] = assay: growth rate (growth curve) activity screening; settings: first E. coli growth column, phase not given
# Excerpt: (§1) The ability of each of the compounds of the invention to impact bacterial growth and viability has been tested. This has been undertaken using a novel drop-test method for initial activity screening, as well as using conventional growth curve analysis methodology. This novel class of antimicrobial agent has shown bactericidal activity against Gram +ve (e.g. S. aureus, Bacillus megaterium) and bacteriostatic activity against Gram −ve isolates (e.g. E. coli).
# (§2) The compounds were screened initially by drop testing methods and then by growth rate methods as it was identified that drop testing methods could give false negatives.
# S. aureus [2] = assay: growth rate (growth curve) activity screening; settings: for Grow Rates activity S. aureus: phase not given; for Grow Rates activity S. aureus Log: log phase bacterial growth
# Excerpt: as §1, §2
# E. coli [3] = assay: Calculated MIC50 and MIC100 values
# Excerpt: (§3) The present inventors have determined MIC50 values, in the nM-μM range, for lead compounds, against clinical S. aureus isolates (e.g. MRSA) and E. coli in both log and stationary phases.
# S. aureus [4] = assay: Calculated MIC50 and MIC100 values; settings: for MIC50 Staph Log / MIC100 Staph Log: log phase; for MIC50 Staph Stat / MIC100 Staph Stat: stationary phase
# Excerpt: as §3
# E. coli [5] = assay: drop test activity screening; note: key: Y = antibacterial activity; N = No antibacterial activity
# Excerpt: as §1, §2
# S. aureus [6] = assay: drop test activity screening; note: key: Y = antibacterial activity; N = No antibacterial activity
# Excerpt: as §1, §2
Compound,Grow Rates activity S. aureus Log (S. aureus [2]),drop test activity E. coli (E. coli [5]),drop test activity S. aureus (S. aureus [6]),other results
O=C(NCS(=O)(=O)O)Nc1ccc(C(F)(F)F)cc1 [Compound 1],Y,N,Y,Grow Rates activity E. coli (E. coli [1]): Y; Grow Rates activity S. aureus (S. aureus [2]): Y; MIC50 Coli Stat (E. coli [3]; stationary phase): 412.0789 µg/mL; MIC100 Coli Stat (E. coli [3]; stationary phase): 421.0559 µg/mL; MIC50 Staph Log (S. aureus [4]): 7.35 μg/mL; MIC100 Staph Log (S. aureus [4]): 29.41 μg/mL; MIC50 Staph Stat (S. aureus [4]): 209.132 µg/mL; MIC100 Staph Stat (S. aureus [4]): 254.5639 µg/mL
O=S(=O)(O)CNC(=S)Nc1ccc(C(F)(F)F)cc1 [Compound 2],Y,N,Y,Grow Rates activity E. coli (E. coli [1]): Y; MIC50 Staph Log (S. aureus [4]): 54.13 μg/mL; MIC100 Staph Log (S. aureus [4]): 93.55 μg/mL
O=C(NCCS(=O)(=O)O)Nc1ccc(C(F)(F)F)cc1 [Compound 3],–,N,N,–
O=S(=O)(O)CCNC(=S)Nc1ccc(C(F)(F)F)cc1 [Compound 4],–,N,Y,–
O=C(NCCCS(=O)(=O)O)Nc1ccc(C(F)(F)F)cc1 [Compound 5],–,N,N,–
O=S(=O)(O)CCCNC(=S)Nc1ccc(C(F)(F)F)cc1 [Compound 6],–,N,Y,–
O=C(NCS(=O)(=O)O)Nc1ccc(C(F)(F)F)cc1 [Compound 31],Y,N,Y,MIC50 Staph Log (S. aureus [4]): 21.6 μg/mL; MIC100 Staph Log (S. aureus [4]): 22.68 μg/mL; MIC50 Staph Stat (S. aureus [4]): 14.79 µg/mL; MIC100 Staph Stat (S. aureus [4]): 14.84 µg/mL
O=C(NCS(=O)(=O)O)Nc1ccc(C(F)(F)F)cc1 [Compound 32],Y,N,Y,MIC50 Staph Log (S. aureus [4]): 19.14 μg/mL; MIC100 Staph Log (S. aureus [4]): 20.08 μg/mL; MIC50 Staph Stat (S. aureus [4]): 39.4 µg/mL; MIC100 Staph Stat (S. aureus [4]): 57 µg/mL
O=C(NCS(=O)(=O)O)Nc1ccc(C(F)(F)F)cc1 [Compound 33],Y,N,Y,MIC50 Staph Log (S. aureus [4]): 0.45 μg/mL; MIC100 Staph Log (S. aureus [4]): 2.971 μg/mL; MIC50 Staph Stat (S. aureus [4]): 5.579 µg/mL; MIC100 Staph Stat (S. aureus [4]): 7.304 µg/mL
O=C(NCS(=O)(=O)O)Nc1ccc(C(F)(F)F)cc1 [Compound 34],Y,N,Y,Grow Rates activity E. coli (E. coli [1]): Y; MIC50 Staph Log (S. aureus [4]): 146.6192 μg/mL
O=C(NCS(=O)(=O)O)Nc1ccc(C(F)(F)F)cc1 [Compound 37],Y,N,Y,"MIC50 (E. coli [3]; Escherichia coli, stationary phase, read-out: MIC50 Coli Stat): 451 µg/mL; MIC (E. coli [3]; Escherichia coli, stationary phase, read-out: MIC100 Coli Stat): 480 µg/mL; MIC50 Coli Log (E. coli [3]; log phase): 236.9979 μg/mL; MIC100 Coli Log (E. coli [3]; log phase): 505.6726 μg/mL; MIC50 Staph Log (S. aureus [4]): 29.08 μg/mL; MIC100 Staph Log (S. aureus [4]): 30.35 μg/mL; MIC50 Staph Stat (S. aureus [4]): 464.1399 µg/mL; MIC100 Staph Stat (S. aureus [4]): 559.1301 µg/mL"
O=C(NCS(=O)(=O)O)Nc1ccc([N+](=O)[O-])cc1 [Compound 38],Y,N,Y,Grow Rates activity E. coli (E. coli [1]): Y
COc1ccc(NC(=O)NCS(=O)(=O)O)cc1 [Compound 39],–,N,N,–
O=C(NCS(=O)(=O)O)Nc1ccccc1 [Compound 40],–,N,N,–
O=C(NCS(=O)(=O)[O-])Nc1ccc(C(F)(F)F)cc1.[Na+] [Compound 41],–,N,Y,–
O=C(NCS(=O)(=O)[O-])Nc1ccc(C(F)(F)F)cc1.[K+] [Compound 42],–,N,N,–
O=S(=O)(O)CNC(=S)Nc1cc(C(F)(F)F)cc(C(F)(F)F)c1 [Compound 43],Y,N,Y,Grow Rates activity E. coli (E. coli [1]): Y
O=C(NCS(=O)(=O)O)Nc1cc(C(F)(F)F)cc(C(F)(F)F)c1 [Compound 44],–,N,Y,–

Compound,Grow Rates activity S. aureus Log (S. aureus [2]),drop test activity E. coli (E. coli [5]),drop test activity S. aureus (S. aureus [6]),other results
O=C(NCS(=O)(=O)O)Nc1cccc2ccccc12 [Compound 45],–,N,N,–
"CCCCNC(=O)NCS(=O)(=O)O [Compound 46, reference compound]",–,N,N,–
"CCCCNC(=S)NCS(=O)(=O)O [Compound 47, reference compound]",–,N,N,–
"CCCCNC(=O)NCCS(=O)(=O)O [Compound 48, reference compound]",–,N,N,–
"CCCCNC(=S)NCCS(=O)(=O)O [Compound 49, reference compound]",–,N,N,–
"CCCCNC(=O)NCCCS(=O)(=O)O [Compound 50, reference compound]",–,N,N,–
"CCCCNC(=S)NCCCS(=O)(=O)O [Compound 51, reference compound]",–,N,N,–
O=C(NCS(=O)(=O)O)Nc1ccc2cc3ccccc3cc2c1 [Compound 52],Y,N,N,Grow Rates activity E. coli (E. coli [1]): Y; MIC50 Staph Log (S. aureus [4]): 330.0044 μg/mL
Cc1ccc2sc(-c3ccc(NC(=O)NCS(=O)(=O)O)cc3)nc2c1 [Compound 53],Y,N,Y,Grow Rates activity E. coli (E. coli [1]): Y; MIC50 Staph Log (S. aureus [4]): 21.11 μg/mL
O=C(NCS(=O)(=O)O)Nc1ccccc1-c1nc2ccccc2s1 [Compound 54],–,N,N,–
O=S(=O)(O)CNC(=S)Nc1ccc(C(F)(F)F)cc1 [Compound 61],Y,N,N,–
O=S(=O)(O)CNC(=S)Nc1ccc(C(F)(F)F)cc1 [Compound 62],Y,N,N,–
O=S(=O)(O)CNC(=S)Nc1ccc(C(F)(F)F)cc1 [Compound 63],–,N,N,–
O=C(NCS(=O)(=O)O)Nc1c(F)c(F)c(F)c(F)c1F [Compound 65],–,N,N,–
O=C(NCS(=O)(=O)O)Nc1ccc(Cc2ccc(NC(=O)NCS(=O)(=O)O)cc2)cc1 [Compound 68],Y,N,Y,MIC50 Staph Log (S. aureus [4]): 370.0761 μg/mL
O=C(NCS(=O)(=O)O)Nc1nc2ccccc2s1 [Compound 71],Y,N,N,Grow Rates activity S. aureus (S. aureus [2]): N
Cc1ccc2nc(NC(=O)NCS(=O)(=O)O)sc2c1 [Compound 72],N,N,N,Grow Rates activity S. aureus (S. aureus [2]): Y
Nc1ccc(NC(=O)NCS(=O)(=O)O)cc1 [Compound 74],Y,N,N,–
